What all share (experiment): IA-DTB cysteine engagement
Common to all, as to type: binding

Test [1] has as its target T1, GRIN2C_C1105 (Homo sapiens, UniProt Q14957).
T1 construct: endogenous in cells; host or cells: 22Rv1
The settings on record: 22Rv1 cells, 20 μM probe, 1 h, relative to DMSO. Put shortly: (§1)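 Competitive chemoproteomics: residual cysteine reactivity toward IA-DTB in lysates from probe-treated cells was quantified by TMT reporter ions relative to DMSO-treated controls. Replicates sharing cell line, probe, concentration and duration were averaged.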

The target of test [2] is T2, GSTO1_C32 (Homo sapiens, UniProt P78417).
T2 construct: endogenous in cells; host or cells: 22Rv1
T2 sequence (P78417 1-241): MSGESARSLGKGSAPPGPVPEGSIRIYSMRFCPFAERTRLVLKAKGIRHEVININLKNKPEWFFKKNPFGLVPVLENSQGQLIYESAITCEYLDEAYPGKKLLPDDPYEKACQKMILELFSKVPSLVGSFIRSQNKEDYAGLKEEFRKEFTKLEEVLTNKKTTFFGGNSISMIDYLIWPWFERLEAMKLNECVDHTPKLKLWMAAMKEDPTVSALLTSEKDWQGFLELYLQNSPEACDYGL
The settings on record: 22Rv1 cells, 20 μM probe, 1 h, relative to DMSO. The essentials:
as §1

Test [3] deals with T3, APOOL_C74 (Homo sapiens, UniProt Q6UXV4).
T3 construct: endogenous in cells; host or cells: 22Rv1
T3 sequence (Q6UXV4 28-268): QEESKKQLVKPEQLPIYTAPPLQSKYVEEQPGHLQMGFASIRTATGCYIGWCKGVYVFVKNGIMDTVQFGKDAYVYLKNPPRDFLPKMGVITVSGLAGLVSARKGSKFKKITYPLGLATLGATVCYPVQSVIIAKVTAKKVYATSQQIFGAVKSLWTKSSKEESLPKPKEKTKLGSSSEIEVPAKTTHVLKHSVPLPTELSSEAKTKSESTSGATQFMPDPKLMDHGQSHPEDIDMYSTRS
The settings on record: 22Rv1 cells, 20 μM probe, 1 h, relative to DMSO. Put shortly:
as §1

For test [4], the target named is T4, PTGR1_C239 (Homo sapiens, UniProt Q14914).
T4 construct: endogenous in cells; host or cells: 22Rv1
T4 sequence (Q14914 whole entry): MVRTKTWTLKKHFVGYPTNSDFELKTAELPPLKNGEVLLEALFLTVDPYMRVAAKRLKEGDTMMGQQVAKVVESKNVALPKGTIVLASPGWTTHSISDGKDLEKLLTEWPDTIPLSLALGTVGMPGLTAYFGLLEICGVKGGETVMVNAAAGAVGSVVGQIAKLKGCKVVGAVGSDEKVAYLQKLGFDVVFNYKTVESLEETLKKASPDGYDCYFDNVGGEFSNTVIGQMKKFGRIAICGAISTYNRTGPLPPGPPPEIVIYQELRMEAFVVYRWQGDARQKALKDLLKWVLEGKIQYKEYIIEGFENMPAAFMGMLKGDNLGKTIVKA
The conditions noted are these: 22Rv1 cells, relative to DMSO; for % engagement PTGR1_C239: 20 μM probe, 1 h; for % engagement PTGR1_239: 5 μM probe, 1 h (FIG. 5B). The essentials:
as §1

In test [5] the target is T5, GCN1_C1095 (Homo sapiens, UniProt Q92616).
T5 construct: endogenous in cells; host or cells: 22Rv1
T5 sequence (Q92616 whole entry): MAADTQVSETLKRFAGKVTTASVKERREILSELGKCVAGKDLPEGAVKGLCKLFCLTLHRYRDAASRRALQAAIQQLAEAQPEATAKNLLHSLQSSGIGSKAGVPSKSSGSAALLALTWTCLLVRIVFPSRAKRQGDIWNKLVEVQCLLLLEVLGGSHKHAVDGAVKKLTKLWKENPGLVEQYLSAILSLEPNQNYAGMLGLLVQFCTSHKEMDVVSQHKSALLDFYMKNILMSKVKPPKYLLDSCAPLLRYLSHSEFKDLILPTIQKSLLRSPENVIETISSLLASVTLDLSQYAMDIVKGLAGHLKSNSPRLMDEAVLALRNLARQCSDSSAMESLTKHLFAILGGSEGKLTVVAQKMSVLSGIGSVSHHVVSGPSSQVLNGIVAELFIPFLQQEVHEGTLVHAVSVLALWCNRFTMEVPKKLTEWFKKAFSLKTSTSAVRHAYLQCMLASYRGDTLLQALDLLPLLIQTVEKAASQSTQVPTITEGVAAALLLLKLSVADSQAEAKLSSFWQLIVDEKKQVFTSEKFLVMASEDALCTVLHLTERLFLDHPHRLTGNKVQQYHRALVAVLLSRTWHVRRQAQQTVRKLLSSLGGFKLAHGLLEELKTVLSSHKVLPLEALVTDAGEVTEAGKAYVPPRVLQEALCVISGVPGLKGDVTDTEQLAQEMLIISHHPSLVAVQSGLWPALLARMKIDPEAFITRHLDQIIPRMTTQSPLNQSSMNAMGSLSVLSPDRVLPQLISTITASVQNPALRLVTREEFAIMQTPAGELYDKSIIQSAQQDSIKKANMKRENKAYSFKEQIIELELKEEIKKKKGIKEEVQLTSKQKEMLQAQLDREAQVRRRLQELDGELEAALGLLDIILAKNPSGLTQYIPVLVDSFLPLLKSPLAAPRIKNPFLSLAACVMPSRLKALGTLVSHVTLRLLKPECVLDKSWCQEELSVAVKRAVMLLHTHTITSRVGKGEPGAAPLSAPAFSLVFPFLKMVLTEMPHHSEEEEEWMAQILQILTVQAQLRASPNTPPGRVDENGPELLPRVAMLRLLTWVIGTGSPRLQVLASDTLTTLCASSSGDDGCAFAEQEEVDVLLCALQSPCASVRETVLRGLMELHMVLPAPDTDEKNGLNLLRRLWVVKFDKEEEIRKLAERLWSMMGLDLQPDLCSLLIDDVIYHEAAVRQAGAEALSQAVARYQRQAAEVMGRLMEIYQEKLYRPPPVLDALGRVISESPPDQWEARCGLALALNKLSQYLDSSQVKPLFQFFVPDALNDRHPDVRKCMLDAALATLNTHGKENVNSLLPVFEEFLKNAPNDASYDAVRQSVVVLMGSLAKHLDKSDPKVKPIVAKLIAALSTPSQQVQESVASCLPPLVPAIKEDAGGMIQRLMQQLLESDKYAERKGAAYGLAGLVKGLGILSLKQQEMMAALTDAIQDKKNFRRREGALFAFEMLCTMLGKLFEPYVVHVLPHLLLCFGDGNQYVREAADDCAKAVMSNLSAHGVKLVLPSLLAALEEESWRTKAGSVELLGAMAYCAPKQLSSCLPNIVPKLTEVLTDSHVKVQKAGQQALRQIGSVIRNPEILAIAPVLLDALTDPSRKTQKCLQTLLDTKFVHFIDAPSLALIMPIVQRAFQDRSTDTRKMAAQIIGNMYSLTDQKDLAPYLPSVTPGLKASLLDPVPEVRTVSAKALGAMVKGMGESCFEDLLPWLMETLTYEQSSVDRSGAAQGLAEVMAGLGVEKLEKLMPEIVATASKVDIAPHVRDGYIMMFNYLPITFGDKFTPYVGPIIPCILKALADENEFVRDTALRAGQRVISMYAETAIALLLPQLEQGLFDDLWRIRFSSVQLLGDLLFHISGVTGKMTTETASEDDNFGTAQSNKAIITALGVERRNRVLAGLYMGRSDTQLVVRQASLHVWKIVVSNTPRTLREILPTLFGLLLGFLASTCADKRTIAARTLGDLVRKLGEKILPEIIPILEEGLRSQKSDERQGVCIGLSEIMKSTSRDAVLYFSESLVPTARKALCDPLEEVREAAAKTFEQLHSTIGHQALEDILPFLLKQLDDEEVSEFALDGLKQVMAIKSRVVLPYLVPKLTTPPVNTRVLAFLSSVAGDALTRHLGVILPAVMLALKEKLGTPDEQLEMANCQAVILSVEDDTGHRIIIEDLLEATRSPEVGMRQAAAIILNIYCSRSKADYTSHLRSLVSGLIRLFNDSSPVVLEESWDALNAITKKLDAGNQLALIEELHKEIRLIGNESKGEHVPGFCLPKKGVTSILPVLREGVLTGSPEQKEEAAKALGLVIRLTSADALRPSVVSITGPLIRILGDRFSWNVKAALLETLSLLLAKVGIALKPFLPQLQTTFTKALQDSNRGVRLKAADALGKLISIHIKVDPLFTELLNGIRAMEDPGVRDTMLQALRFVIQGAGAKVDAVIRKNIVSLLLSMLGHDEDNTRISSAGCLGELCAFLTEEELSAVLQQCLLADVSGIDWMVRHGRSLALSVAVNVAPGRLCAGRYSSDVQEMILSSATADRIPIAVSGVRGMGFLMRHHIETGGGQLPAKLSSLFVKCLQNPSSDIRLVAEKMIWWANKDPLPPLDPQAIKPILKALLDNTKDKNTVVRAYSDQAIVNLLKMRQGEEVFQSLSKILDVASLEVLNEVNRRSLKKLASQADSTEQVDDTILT
The settings on record: 22Rv1 cells, 20 μM probe, 1 h, relative to DMSO. Put shortly:
as §1

Test [6] deals with T6, NUDT8_C207 (Homo sapiens, UniProt Q8WV74).
T6 construct: endogenous in cells; host or cells: 22Rv1
T6 sequence (Q8WV74 1-236): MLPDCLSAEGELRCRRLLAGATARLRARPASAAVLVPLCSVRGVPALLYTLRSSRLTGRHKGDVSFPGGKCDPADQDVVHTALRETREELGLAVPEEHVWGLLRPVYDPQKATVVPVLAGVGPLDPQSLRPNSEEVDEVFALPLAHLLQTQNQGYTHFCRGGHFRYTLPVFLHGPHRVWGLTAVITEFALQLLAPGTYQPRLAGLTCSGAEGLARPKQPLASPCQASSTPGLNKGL
The settings on record: 22Rv1 cells, 20 μM probe, 1 h, relative to DMSO. Put shortly:
as §1

T1 sequence (Q14957 20-1233, other chains not shown): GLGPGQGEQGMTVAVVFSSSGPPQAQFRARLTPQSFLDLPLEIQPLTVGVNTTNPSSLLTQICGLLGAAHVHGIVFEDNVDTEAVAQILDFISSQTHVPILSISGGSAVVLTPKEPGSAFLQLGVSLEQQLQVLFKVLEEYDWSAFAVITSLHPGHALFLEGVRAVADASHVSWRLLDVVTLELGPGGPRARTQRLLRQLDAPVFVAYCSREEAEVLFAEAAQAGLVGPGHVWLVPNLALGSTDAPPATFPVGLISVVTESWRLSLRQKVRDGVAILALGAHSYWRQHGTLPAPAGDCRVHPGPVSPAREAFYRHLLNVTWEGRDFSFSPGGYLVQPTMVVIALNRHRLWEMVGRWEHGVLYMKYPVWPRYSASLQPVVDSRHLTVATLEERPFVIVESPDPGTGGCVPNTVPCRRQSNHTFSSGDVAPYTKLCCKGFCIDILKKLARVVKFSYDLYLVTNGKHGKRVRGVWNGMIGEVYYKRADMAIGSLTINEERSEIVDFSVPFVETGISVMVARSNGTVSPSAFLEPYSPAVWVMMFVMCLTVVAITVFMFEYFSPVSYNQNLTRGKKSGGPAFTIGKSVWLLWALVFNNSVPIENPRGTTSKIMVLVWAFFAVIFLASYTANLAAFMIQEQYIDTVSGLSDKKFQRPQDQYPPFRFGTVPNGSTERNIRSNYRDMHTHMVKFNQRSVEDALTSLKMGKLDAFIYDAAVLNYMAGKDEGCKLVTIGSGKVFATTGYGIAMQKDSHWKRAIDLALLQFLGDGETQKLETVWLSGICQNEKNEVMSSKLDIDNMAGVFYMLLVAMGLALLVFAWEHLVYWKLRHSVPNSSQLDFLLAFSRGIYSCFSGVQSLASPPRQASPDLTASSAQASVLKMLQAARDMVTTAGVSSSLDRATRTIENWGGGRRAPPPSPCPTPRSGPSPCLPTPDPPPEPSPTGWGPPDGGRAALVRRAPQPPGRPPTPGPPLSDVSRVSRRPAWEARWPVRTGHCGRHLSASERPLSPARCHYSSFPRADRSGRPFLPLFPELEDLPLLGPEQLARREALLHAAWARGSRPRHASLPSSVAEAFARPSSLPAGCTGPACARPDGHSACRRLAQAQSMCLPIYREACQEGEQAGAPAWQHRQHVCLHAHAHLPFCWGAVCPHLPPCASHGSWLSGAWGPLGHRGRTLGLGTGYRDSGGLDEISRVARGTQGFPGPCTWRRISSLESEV

Turning to `C=CC(=O)N1C[C@@H](c2ccc(Br)cc2)[C@H]1C(=O)Nc1cccc2cccnc12` [MY-1A, (2S,3R)-1-acryloyl-3-(4-bromophenyl)-N-(quinolin-8-yl)azetidine-2-carboxamide], the “% engagement GRIN2C_C1105” value in test [1] is listed as 78.5%. Besides, in test [2], the “% engagement GSTO1_C32” value came to 22%. Besides, in test [3], the “% engagement APOOL_C74” value worked out at 52.75%. The “% engagement PTGR1_C239” value in test [4] is 75%. Also, in test [5], the “% engagement GCN1_C1095” value came out at 18.5%. Also, the “% engagement NUDT8_C207” value in test [6] was determined as 71.5%.
Take `C=CC(=O)N1C[C@H](c2ccc(Br)cc2)[C@@H]1C(=O)Nc1cccc2cccnc12` [MY-1B, (2R,3S)-1-acryloyl-3-(4-bromophenyl)-N-(quinolin-8-yl)azetidine-2-carboxamide]: the “% engagement GRIN2C_C1105” value in test [1] worked out at 40.5%. Also, the “% engagement GSTO1_C32” value in test [2] stood at 82%. Also, in test [3], the “% engagement APOOL_C74” value amounted to 64.5%. In test [4], the “% engagement PTGR1_239” value was 81.33% and the “% engagement PTGR1_C239” value came out at 79%. For the same compound, in test [5], the “% engagement GCN1_C1095” value is listed as 84%. In addition, the “% engagement NUDT8_C207” value in test [6] came out at 78.5%.
In the case of `C=CC(=O)N1C[C@H](c2ccc(Br)cc2)[C@H]1C(=O)Nc1cccc2cccnc12` [MY-3A, (2S,3S)-1-acryloyl-3-(4-bromophenyl)-N-(quinolin-8-yl)azetidine-2-carboxamide], the “% engagement GRIN2C_C1105” value in test [1] was 85%. The “% engagement GSTO1_C32” value in test [2] is 79%. Besides, the “% engagement APOOL_C74” value in test [3] is given as 52%. In addition, the “% engagement PTGR1_C239” value in test [4] is recorded as −4%. The “% engagement GCN1_C1095” value in test [5] was determined as 5%. Further, the “% engagement NUDT8_C207” value in test [6] is recorded as 64.25%.
As for `C=CC(=O)N1C[C@H](c2ccc(Br)cc2)[C@H]1C(=O)Nc1cccc2cccnc12` [MY-3B, (2S,3S)-1-acryloyl-3-(4-bromophenyl)-N-(quinolin-8-yl)azetidine-2-carboxamide], in test [1], the “% engagement GRIN2C_C1105” value stood at 64.5%. Also, in test [2], the “% engagement GSTO1_C32” value worked out at 80.5%. In addition, the “% engagement APOOL_C74” value in test [3] is recorded as 71.25%. The “% engagement PTGR1_C239” value in test [4] was −16.5%. For the same compound, in test [5], the “% engagement GCN1_C1095” value is reported as −7.5%. The “% engagement NUDT8_C207” value in test [6] was 88.75%.
For the compound `CC#CC(=O)N1C[C@H](c2ccc(Br)cc2)[C@@H]1C(=O)Nc1cccc2cccnc12` [MY-45B, (2R,3S)-3-(4-bromophenyl)-1-(but-2-ynoyl)-N-(quinolin-8-yl)azetidine-2-carboxamide], the “% engagement PTGR1_239” value in test [4] is reported as −4.50%.

Source of the values: patent US20250034216A1, “STEREOSELECTIVE COVALENT LIGANDS FOR ONCOGENIC AND IMMUNOLOGICAL PROTEINS” (The Scripps Research Institute, priority 2021, published 2025).
